Experiments:
[1] = Miscibility of toluene with HFP and HFPO; type: physicochemical; details: in toluene; miscibility sharply affected by temperature
Source text: Certain organic liquids show more affinity for perfluoroolefins than for their epoxides and they are desired for use in this invention. […] With mixtures of HFP and HFPO as would exist in a continuous back-mixed reactor, immiscibility exists at higher temperatures. It is believed that organic liquids which are substantially halogenated will not form two phases with HFP or HFPO. […] Therefore, a hydrogen-containing organic liquid is used.

[2] = Determination of the HFP-HFPO partition coefficient (alpha) in an organic liquid: HFP/HFPO gas mixture passed through the liquid, dissolved gases measured by gas chromatography; type: physicochemical; details: HFP-HFPO partition coefficient of the organic liquid, atmospheric pressure
Procedure: A simple method of determining this preference (using HFP over HFPO as an example of other olefins and their epoxides covered by this invention) is to determine the partition coefficient for the system HFPO-HFP-organic liquid. Determination of the partition coefficient (alpha) is carried out by passing a mixture of HFP and HFPO gas through the organic liquid at atmospheric pressure while agitating vigorously and maintaining a constant temperature. The gas is passed through the liquid long enough to ensure that the liquid is completely saturated with the gases and to let the gas phase composition equilibrate to the feed composition. The organic liquid phase is then sampled and gas chromatography is used to determine the amount of the gaseous components which had been dissolved in the liquid phase. The partition coefficient, alpha, is then calculated by the following equation: [formula]
Using this method, partition coefficients were determined for a number of organic liquids at -15°C and 0°C, with the results shown below: […]

Compound | concentration at which toluene becomes immiscible [1] | Alpha at 0°C [2] | Alpha at -15°C [2]
FC(F)=C(F)C(F)(F)F [HFP, hexafluoropropylene] | 20-40 wt % |  | 
COc1ccccc1 [anisole] |  | 2.5 | 2.4
FC(F)(F)C1(F)OC1(F)F (centres unmarked) [HFPO, hexafluoropropylene epoxide] | 3-6 wt % |  | 
Clc1ccccc1 [chlorobenzene] |  | 2.1 | 1.9
Cc1cc(C)cc(C)c1 [mesitylene] |  | 2.2 | 2.3
FC(F)(F)C(F)(F)C(F)(F)C(F)(F)C1(F)OC(F)(F)C(F)(F)C1(F)F (centres unmarked) [FC-75, Perfluoro(butyl tetrahydrofurane)] |  | 1.0 | 1.0
CCCCCCCCCC [n-decane] |  | 1.3 | 1.6
dichlorobenzene |  | 2.1 | 2.0

— EP0414569A2, “Three-liquid-phase epoxidation of perfluoroolefins” (E.I. DU PONT DE NEMOURS AND COMPANY, priority 1989, dated 1991)
